Assay results from ChEMBL document CHEMBL3217501, “Synthesis and biological evaluation of tetrazole containing compounds as possible anticancer agents” (Medchemcomm, 2011).
Calls of active or inactive are those of the source. The rule behind the calls is not given here.

tested on: DU-145; experiment: Cytotoxicity against human DU145 cells assessed as growth inhibition after 48 hrs by SRB assay; format: functional, cell-based; details: DU-145, 48 h

Compound | IC50
COC(=O)/C(=C/c1ccc([N+](=O)[O-])cc1)Cn1cnnn1 | 5.5 µM
N#C/C(=C\c1cccc2ccccc12)Cn1cnnn1 | 7.36 µM
CCOC(=O)/C(=C/c1ccc(Br)cc1)Cn1cnnn1 | 5.5 µM
COC(=O)/C(=C/c1ccc(F)cc1)Cn1cnnn1 | 8.57 µM
N#C/C(=C\c1ccc(C(F)(F)F)cc1)Cn1cnnn1 | 5.92 µM
CCOC(=O)/C(=C/c1ccccc1Br)Cn1cnnn1 | 7.79 µM
COc1cc([C@@H]2c3cc4c(cc3[C@H](O)[C@H]3COC(=O)[C@H]23)OCO4)cc(OC)c1OC [PODOFILOX] | < 0.1 µM
COc1ccc(/C=C(\C#N)Cn2cnnn2)cc1 | 19.4 µM
COC(=O)/C(=C/c1ccc(C)cc1)Cn1cnnn1 | 8.42 µM
COC(=O)/C(=C/c1ccccc1[N+](=O)[O-])Cn1cnnn1 | 10.2 µM
CCOC(=O)/C(=C/c1ccc(Cl)cc1)Cn1cnnn1 | 8.44 µM
Cc1ccc(/C=C(\C#N)Cn2cnnn2)cc1 | 7.3 µM
Cc1nnnn1C/C(C#N)=C/c1ccc(F)cc1 | 7.19 µM
COC(=O)/C(=C/c1ccc(OC)cc1)Cn1cnnn1 | 5.6 µM
N#C/C(=C\c1ccccc1)Cn1cnnn1 | 9.45 µM
Cc1nnnn1C/C(C#N)=C/c1cccc2ccccc12 | 5.76 µM
COC(=O)/C(=C/c1ccccc1)Cn1cnnn1 | 9.02 µM
COC(=O)Nc1nc2cc(C(=O)c3cccs3)ccc2[nH]1 [NOCODAZOLE] | < 0.1 µM

tested on: Calf thymus DNA; experiment: Binding affinity to calf thymus DNA by fluorescence spectroscopic analysis; format: nucleic-acid assay; details: Bos taurus

Activity | Compound
Active | Cc1nnnn1C/C(C#N)=C/c1cccc2ccccc12

tested on: Calf thymus DNA; experiment: Binding affinity to calf thymus DNA assessed as compound-DNA complex formation by UV-Vis absorption spectroscopic analysis; format: nucleic-acid assay; details: Bos taurus

Kb | Compound
0.75 ×10⁵ /M | Cc1nnnn1C/C(C#N)=C/c1cccc2ccccc12

tested on: SK-N-SH; experiment: Cytotoxicity against human SK-N-SH cells assessed as growth inhibition after 48 hrs by SRB assay; format: functional, cell-based; details: not given

Compound | IC50
COC(=O)/C(=C/c1ccc([N+](=O)[O-])cc1)Cn1cnnn1 | 22.3 µM
N#C/C(=C\c1cccc2ccccc12)Cn1cnnn1 | 16.9 µM
CCOC(=O)/C(=C/c1ccc(Br)cc1)Cn1cnnn1 | 27.3 µM
COC(=O)/C(=C/c1ccc(F)cc1)Cn1cnnn1 | 18.3 µM
N#C/C(=C\c1ccc(C(F)(F)F)cc1)Cn1cnnn1 | 11.8 µM
CCOC(=O)/C(=C/c1ccccc1Br)Cn1cnnn1 | 16.3 µM
COc1cc([C@@H]2c3cc4c(cc3[C@H](O)[C@H]3COC(=O)[C@H]23)OCO4)cc(OC)c1OC [PODOFILOX] | < 0.1 µM
COc1ccc(/C=C(\C#N)Cn2cnnn2)cc1 | 64.2 µM
COC(=O)/C(=C/c1ccc(C)cc1)Cn1cnnn1 | 71.7 µM
COC(=O)/C(=C/c1ccccc1[N+](=O)[O-])Cn1cnnn1 | 19.8 µM
CCOC(=O)/C(=C/c1ccc(Cl)cc1)Cn1cnnn1 | 28.2 µM
Cc1ccc(/C=C(\C#N)Cn2cnnn2)cc1 | 20.1 µM
Cc1nnnn1C/C(C#N)=C/c1ccc(F)cc1 | 20.2 µM
COC(=O)/C(=C/c1ccc(OC)cc1)Cn1cnnn1 | 7.9 µM
N#C/C(=C\c1ccccc1)Cn1cnnn1 | 23.3 µM
Cc1nnnn1C/C(C#N)=C/c1cccc2ccccc12 | 13.7 µM
COC(=O)/C(=C/c1ccccc1)Cn1cnnn1 | 31.6 µM
COC(=O)Nc1nc2cc(C(=O)c3cccs3)ccc2[nH]1 [NOCODAZOLE] | < 0.1 µM

tested on: HepG2; experiment: Cytotoxicity against human HepG2 cells assessed as growth inhibition after 48 hrs by SRB assay; format: functional, cell-based; details: HepG2, 48 h

Compound | IC50
COC(=O)/C(=C/c1ccc([N+](=O)[O-])cc1)Cn1cnnn1 | 2.07 µM
N#C/C(=C\c1cccc2ccccc12)Cn1cnnn1 | 7.11 µM
CCOC(=O)/C(=C/c1ccc(Br)cc1)Cn1cnnn1 | 4.89 µM
COC(=O)/C(=C/c1ccc(F)cc1)Cn1cnnn1 | 12.1 µM
N#C/C(=C\c1ccc(C(F)(F)F)cc1)Cn1cnnn1 | 1.65 µM
CCOC(=O)/C(=C/c1ccccc1Br)Cn1cnnn1 | 3.33 µM
COc1cc([C@@H]2c3cc4c(cc3[C@H](O)[C@H]3COC(=O)[C@H]23)OCO4)cc(OC)c1OC [PODOFILOX] | < 0.1 µM
COc1ccc(/C=C(\C#N)Cn2cnnn2)cc1 | 27.4 µM
COC(=O)/C(=C/c1ccc(C)cc1)Cn1cnnn1 | 10.7 µM
COC(=O)/C(=C/c1ccccc1[N+](=O)[O-])Cn1cnnn1 | 4.33 µM
CCOC(=O)/C(=C/c1ccc(Cl)cc1)Cn1cnnn1 | 3 µM
Cc1ccc(/C=C(\C#N)Cn2cnnn2)cc1 | 6.56 µM
Cc1nnnn1C/C(C#N)=C/c1ccc(F)cc1 | 7.29 µM
COC(=O)/C(=C/c1ccc(OC)cc1)Cn1cnnn1 | 6.65 µM
N#C/C(=C\c1ccccc1)Cn1cnnn1 | 5.83 µM
Cc1nnnn1C/C(C#N)=C/c1cccc2ccccc12 | 2.6 µM
COC(=O)/C(=C/c1ccccc1)Cn1cnnn1 | 10.7 µM
COC(=O)Nc1nc2cc(C(=O)c3cccs3)ccc2[nH]1 [NOCODAZOLE] | < 0.1 µM

tested on: MDA-MB-231; experiment: Cytotoxicity against human MDA-MB-231 cells assessed as growth inhibition after 48 hrs by SRB assay; format: functional, cell-based; details: MDA-MB-231, 48 h

Compound | IC50
COC(=O)/C(=C/c1ccc([N+](=O)[O-])cc1)Cn1cnnn1 | 9.14 µM
N#C/C(=C\c1cccc2ccccc12)Cn1cnnn1 | 31.4 µM
CCOC(=O)/C(=C/c1ccc(Br)cc1)Cn1cnnn1 | 18.9 µM
COC(=O)/C(=C/c1ccc(F)cc1)Cn1cnnn1 | 15.9 µM
N#C/C(=C\c1ccc(C(F)(F)F)cc1)Cn1cnnn1 | 8.7 µM
CCOC(=O)/C(=C/c1ccccc1Br)Cn1cnnn1 | 14.8 µM
COc1cc([C@@H]2c3cc4c(cc3[C@H](O)[C@H]3COC(=O)[C@H]23)OCO4)cc(OC)c1OC [PODOFILOX] | < 0.1 µM
COc1ccc(/C=C(\C#N)Cn2cnnn2)cc1 | 20.3 µM
COC(=O)/C(=C/c1ccc(C)cc1)Cn1cnnn1 | 62.6 µM
COC(=O)/C(=C/c1ccccc1[N+](=O)[O-])Cn1cnnn1 | 43.7 µM
CCOC(=O)/C(=C/c1ccc(Cl)cc1)Cn1cnnn1 | 23.9 µM
Cc1ccc(/C=C(\C#N)Cn2cnnn2)cc1 | 25.7 µM
Cc1nnnn1C/C(C#N)=C/c1ccc(F)cc1 | 28.8 µM
COC(=O)/C(=C/c1ccc(OC)cc1)Cn1cnnn1 | 21 µM
N#C/C(=C\c1ccccc1)Cn1cnnn1 | 18.4 µM
Cc1nnnn1C/C(C#N)=C/c1cccc2ccccc12 | 14.1 µM
COC(=O)/C(=C/c1ccccc1)Cn1cnnn1 | 16.4 µM
COC(=O)Nc1nc2cc(C(=O)c3cccs3)ccc2[nH]1 [NOCODAZOLE] | < 0.1 µM

tested on: A549; experiment: Cytotoxicity against human A549 cells assessed as growth inhibition after 48 hrs by SRB assay; format: functional, cell-based; details: A549, 48 h

Compound | IC50
COC(=O)/C(=C/c1ccc([N+](=O)[O-])cc1)Cn1cnnn1 | 2.84 µM
N#C/C(=C\c1cccc2ccccc12)Cn1cnnn1 | 5.7 µM
CCOC(=O)/C(=C/c1ccc(Br)cc1)Cn1cnnn1 | 4.78 µM
COC(=O)/C(=C/c1ccc(F)cc1)Cn1cnnn1 | 6.9 µM
N#C/C(=C\c1ccc(C(F)(F)F)cc1)Cn1cnnn1 | 3.51 µM
CCOC(=O)/C(=C/c1ccccc1Br)Cn1cnnn1 | 5.94 µM
COc1cc([C@@H]2c3cc4c(cc3[C@H](O)[C@H]3COC(=O)[C@H]23)OCO4)cc(OC)c1OC [PODOFILOX] | < 0.1 µM
COc1ccc(/C=C(\C#N)Cn2cnnn2)cc1 | 23.8 µM
COC(=O)/C(=C/c1ccc(C)cc1)Cn1cnnn1 | 16 µM
COC(=O)/C(=C/c1ccccc1[N+](=O)[O-])Cn1cnnn1 | 6.88 µM
CCOC(=O)/C(=C/c1ccc(Cl)cc1)Cn1cnnn1 | 3.18 µM
Cc1ccc(/C=C(\C#N)Cn2cnnn2)cc1 | 7.95 µM
Cc1nnnn1C/C(C#N)=C/c1ccc(F)cc1 | 6.4 µM
COC(=O)/C(=C/c1ccc(OC)cc1)Cn1cnnn1 | 3.83 µM
N#C/C(=C\c1ccccc1)Cn1cnnn1 | 9.99 µM
Cc1nnnn1C/C(C#N)=C/c1cccc2ccccc12 | 2.95 µM
COC(=O)/C(=C/c1ccccc1)Cn1cnnn1 | 7.91 µM
COC(=O)Nc1nc2cc(C(=O)c3cccs3)ccc2[nH]1 [NOCODAZOLE] | < 0.1 µM
